Some test systems named below: T-47D breast; HL-60(TB) leukemia; TK-10 renal; K-562 leukemia; UACC-257 melanoma; SK-MEL-2 melanoma; HCC-2998 colon; HS 578T breast.
Experiment in all cases: NCI anticancer screen, dose series, 48 h

Molecules are shown by their SMILES.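 Five compound concentrations were applied to cells in 96-well plates for 48 hours; endpoints were derived by simple linear interpolation of the resulting dose-response curve. GI50 marks 50% less growth. TGI marks complete inhibition of growth.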 Where only a bound is given, the exact number is not on record here.

Take `CC1(C)N=C(N)N=C(N)N1c1ccc(OCC(=O)N2CCOCC2)c(Cl)c1`: the GI50 was > 100 µM with T-47D breast; 0.981 µM in the assay on HL-60(TB) leukemia; > 100 µM with TK-10 renal; 0.854 µM in the assay on K-562 leukemia; > 100 µM with UACC-257 melanoma; > 100 µM with SK-MEL-2 melanoma. In the assay with HCC-2998 colon, the GI50 was 9.78 µM. Further, the TGI in the assay with T-47D breast, in the assay on HL-60(TB) leukemia, in the assay with TK-10 renal, with K-562 leukemia, in the assay on UACC-257 melanoma and in the assay on SK-MEL-2 melanoma was > 100 µM each time. The TGI in the assay on HCC-2998 colon was > 100 µM.

As to `COc1cc(OC)c2cc(C(=O)O)c(=O)oc2c1`, the GI50 with T-47D breast is > 100 µM; with HL-60(TB) leukemia it was > 100 µM; in the assay with TK-10 renal it was > 74.5 µM; in the assay with K-562 leukemia, > 100 µM; in the assay on UACC-257 melanoma it was > 85.9 µM; in the assay on SK-MEL-2 melanoma it was > 35.6 µM. In the assay on HCC-2998 colon, the GI50 was > 100 µM. For the same compound, the TGI in the assay with T-47D breast is > 100 µM; in the assay on HL-60(TB) leukemia it was > 100 µM; in the assay on TK-10 renal, > 100 µM; with K-562 leukemia, > 100 µM; with UACC-257 melanoma it was > 100 µM; with HS 578T breast it was > 51.4 µM. The TGI is > 53.8 µM in the assay with SK-MEL-2 melanoma and > 100 µM with HCC-2998 colon.

Take `COc1cc(C2CC(c3ccc(Nc4ccnc5cc(Cl)ccc45)cc3)=NN2C=O)cc(OC)c1OC` (stereo not drawn): the GI50 in the assay with T-47D breast was 2.33 µM; with HL-60(TB) leukemia, 2.53 µM; in the assay on TK-10 renal, 3.09 µM; in the assay on UACC-257 melanoma, 2.84 µM; with HS 578T breast it was 3.24 µM; with HCC-2998 colon, 5.52 µM. Further, the TGI with T-47D breast is 7.4 µM; with HL-60(TB) leukemia, 7.4 µM; in the assay with TK-10 renal, 9.4 µM; in the assay with UACC-257 melanoma it was 8.28 µM; in the assay on HS 578T breast it was 27.7 µM; in the assay with HCC-2998 colon it was > 100 µM.

For the compound `COc1ccc(N(C)c2nc(Cl)nc3ccn(C)c23)cc1`, the GI50 in the assay with T-47D breast is > 100 µM; in the assay with HL-60(TB) leukemia, < 0.01 µM; in the assay on TK-10 renal, 91.3 µM; in the assay on K-562 leukemia, < 0.01 µM; in the assay on UACC-257 melanoma it was > 100 µM; in the assay with HS 578T breast it was < 0.01 µM. Besides, the GI50 with HCC-2998 colon was < 0.01 µM. The TGI in the assay with T-47D breast was > 100 µM; with HL-60(TB) leukemia, < 0.01 µM; in the assay on TK-10 renal, > 100 µM; in the assay with K-562 leukemia, > 100 µM; with UACC-257 melanoma, > 100 µM; in the assay on HS 578T breast it was > 100 µM. Also, the TGI in the assay on HCC-2998 colon is > 100 µM.

Turning to `Cn1c(=O)c2[nH]c(C3CC(=O)CC(c4nc5c([nH]4)c(=O)n(C)c(=O)n5C)N3)nc2n(C)c1=O` (stereo not drawn), the TGI in the assay with T-47D breast, with HL-60(TB) leukemia, in the assay with TK-10 renal, in the assay with K-562 leukemia, in the assay with UACC-257 melanoma and with HS 578T breast was > 100 µM throughout. Moreover, in the assay with SK-MEL-2 melanoma, the TGI is > 100 µM.

Regarding `Oc1ccccc1Nc1nc2ccccc2c2occc12`, the GI50 in the assay on T-47D breast was 10.1 µM; in the assay with TK-10 renal, 1.9 µM; in the assay with K-562 leukemia, > 100 µM; in the assay on UACC-257 melanoma, 16.1 µM; with HS 578T breast it was 3.9 µM; in the assay with SK-MEL-2 melanoma, 14.1 µM. Moreover, in the assay with HCC-2998 colon, the GI50 is 3.11 µM. The TGI was 24.1 µM with T-47D breast; 6.65 µM in the assay with TK-10 renal; > 100 µM in the assay with K-562 leukemia; 29.6 µM with UACC-257 melanoma; 20.8 µM in the assay with HS 578T breast; 31 µM in the assay on SK-MEL-2 melanoma. This compound also came in with a TGI in the assay on HCC-2998 colon of 10.3 µM.

For the compound `O=C(NCC(=O)N1CC[C@H](NC2CCC(O)(c3ccc(-c4ncccn4)cn3)CC2)C1)c1cccc(C(F)(F)F)c1` (stereo partly drawn), the GI50 in the assay with T-47D breast is 22.9 µM; in the assay with HL-60(TB) leukemia, 55.4 µM; with TK-10 renal, > 100 µM; in the assay with UACC-257 melanoma, 40.8 µM; in the assay on HS 578T breast, 48.9 µM; in the assay on SK-MEL-2 melanoma, > 100 µM. Moreover, in the assay with HCC-2998 colon, the GI50 was > 100 µM. In addition, the TGI with T-47D breast, with HL-60(TB) leukemia, in the assay with TK-10 renal, in the assay on UACC-257 melanoma, with HS 578T breast and in the assay on SK-MEL-2 melanoma was > 100 µM throughout. For the same compound, the TGI in the assay with HCC-2998 colon is > 100 µM.

For the compound `CN1C(=O)c2cc([N+](=O)[O-])ccc2[C@H]2C(=O)c3cc4c(cc3[C@H]21)OCO4`, the GI50 in the assay with T-47D breast was 0.321 µM; with HL-60(TB) leukemia, 0.215 µM; in the assay with TK-10 renal it was 1.28 µM; in the assay with K-562 leukemia, 0.199 µM; in the assay on UACC-257 melanoma it was 0.139 µM; in the assay with HS 578T breast it was 0.93 µM. For the same compound, the GI50 in the assay with SK-MEL-2 melanoma is 1.91 µM. Also, the TGI is > 29.4 µM with T-47D breast; > 100 µM in the assay with HL-60(TB) leukemia; > 100 µM with K-562 leukemia; 3.3 µM in the assay on UACC-257 melanoma; > 100 µM in the assay with HS 578T breast; > 45.8 µM in the assay on SK-MEL-2 melanoma.

`Cc1[nH]n(-c2ccc(S(=O)(=O)O)cc2)c(=O)c1N=Nc1ccccc1`: the TGI in the assay with T-47D breast, in the assay on TK-10 renal, in the assay on K-562 leukemia, in the assay with UACC-257 melanoma, in the assay on HS 578T breast and in the assay with SK-MEL-2 melanoma was > 100 µM throughout. Besides, the TGI with HCC-2998 colon is > 100 µM.

Regarding `CO/N=C(\COc1ccc2c(c1)oc(=O)c1cc(OC)ccc12)c1cccc(OC)c1`, the GI50 in the assay on T-47D breast, in the assay with TK-10 renal, with K-562 leukemia, with UACC-257 melanoma, in the assay on HS 578T breast and with SK-MEL-2 melanoma was > 100 µM throughout. For the same compound, in the assay on HCC-2998 colon, the GI50 is > 100 µM. Moreover, the TGI in the assay with T-47D breast, in the assay on TK-10 renal, with K-562 leukemia, in the assay on UACC-257 melanoma, in the assay with HS 578T breast and in the assay with SK-MEL-2 melanoma was > 100 µM each time. Moreover, the TGI in the assay with HCC-2998 colon was > 100 µM.

On to `CO/N=C(\COc1ccc2c(c1)oc(=O)c1cc(OC)ccc12)c1ccc(F)cc1`, for which the GI50 with T-47D breast was 25 µM; in the assay on TK-10 renal it was 14.7 µM; in the assay on K-562 leukemia, 23.9 µM; with UACC-257 melanoma, 45.5 µM; with HS 578T breast, 29.9 µM; in the assay with SK-MEL-2 melanoma, 23.1 µM. Also, the GI50 in the assay on HCC-2998 colon was 23.6 µM. Besides, the TGI was 90.3 µM in the assay with T-47D breast; 29.5 µM in the assay with TK-10 renal; 58.7 µM in the assay on K-562 leukemia; > 100 µM in the assay with UACC-257 melanoma; > 100 µM with HS 578T breast; 72.8 µM in the assay with SK-MEL-2 melanoma. The same compound gave a TGI with HCC-2998 colon of 72.7 µM.

For the origin of these results see PubChem BioAssay (NCI).
